Test results: US9650375B2, “Indole derivatives useful as anti-diabetic agents” (Merck Sharp & Dohme Corp., priority 2013, dated 2017)

Columns and labels:
ob/ob and db/db mice = settings: following 8 weeks of administration; cited from earlier work
[1] = target: T1, recombinant human AMPK complex 1 (containing α1β1γ1) (Homo sapiens, UniProt Q13131+Q9Y478); assay: In vitro AMPK activation assay (AMPKSAMSF), AMPK complex 1; format: biochemical; settings: for Emax: 10-point titration data expressed as % maximum AMP activation; for EC50: human AMPK complex 1, inflection point reflecting 50% of the maximum activation
T1 construct: made in house; host or cells: Spodoptera frugiperda Sf21 cells (baculovirus, triple infection)
Experimental: (§1) AMPKSAMSF (In Vitro AMPK Activation Assay)
(§2) The recombinant human AMPK complex 1 (containing α1β1γ1) and complex 7 (containing α2β1γ1) were obtained from baculovirus expression system. Recombinant viruses were generated by cotransfection of AMPK/pBacPak9 clones with Baculogold baculovirus DNA (Pharmingen) in spodoptera frugiperda 21 cells according to the manufacturer's instructions. Each round of virus amplification was performed for 5 days in Grace's medium containing 10% serum. Virus that had been subjected to three rounds of amplification was used for all protein production procedures. To express the AMPK complex, sf21 cells were adapted to serum free medium (SF900 II, Invitrogen) by sequential dilution from serum containing stocks into SF900II medium and maintained in shaker flasks at 90 rpm at 27° C. The recombinant AMPK enzyme complex was produced by triple infection, one recombinant virus for each of the subunits, in sf21 cells under serum free conditions. Cells were infected in log phase, 1×10^6 cells/ml, at a multiplicity of infection of ˜5. Cells were harvested by centrifugation at 10,000×g for 15 minutes after 72 hours of infection with viruses. The insect cell pellet from 2 liters of culture was resuspended in 50 ml lysis buffer (20 mM Tris-HCl, 50 mM NaCl, 50 mM NaF, 30 mM Na PPi, 0.25 M sucrose, 10 mM ZnCl2, 2 mM DTT, 0.4 mg/ml digitonin) and subjected to two cycles of freeze-thaw lysis in a dry-ice ethanol bath. Insoluble material was removed by centrifugation at 10,000×g and the supernatant was fractionated with use of polyethylene glycol (PEG). The protein fraction precipitating between 2.5 and 6% PEG was used for further purification using a Blue-Sepharose step (Zhou et al, J. Clin. Invest. 108, 1167-1174, 2001).
(§3) The in vitro AMPK activation assay is performed in a volume of 30 μl in a 384-well plate. Enzyme reactions were assembled in the microtiter plate by adding 15 μl of 2× enzyme in assay buffer (20 mM HEPES, pH 7.3, 5 mM MgCl2, 3 mM DTT, 0.01% Brij 35 and CamK Kinase, to activate AMPK) to wells which contained either DMSO or compound. The reaction was initiated with the addition of 15 μ12× substrate mixture containing 200 μM ATP, and 3.0 μM fluorescently labeled SAMS (5-FAM-HMRSAMSGLHLVKRR—COOH) in assay buffer. After 45-minute incubation at 25° C., the reaction was stopped by the addition of 70 μl stop buffer (100 mM HEPES, pH 7.3, 40 mM EDTA, 0.015% Brij 35). Phosphorylated 5-FAM SAMS product is assessed using a Caliper EZ Reader LabChip microfluidics reader. Product conversion is determined by calculating the peak heights of the substrate and product and reporting the product/(product+substrate) peak ratio. The 10-point titration data were expressed as % maximum AMP activation. The results were plotted using 4 parameter fit and the inflection point reflecting 50% of the maximum activation was reported as the EC50.
(§4) The compounds of present invention, including the compounds of Examples 1-142, were tested in the in vitro AMPK activation assay using recombinant human AMPK complex 1 (containing α1β1γ1) or AMPK complex 7 (containing α2β1γ1) and found to have increased activation of human AMPK complex 1 or complex 7 at concentrations of less than 50 μM.

[2] = target: T2, recombinant human AMPK complex 7 (containing α2β1γ1) (Homo sapiens, UniProt P54646+Q9Y478); assay: In vitro AMPK activation assay (AMPKSAMSF), AMPK complex 7; format: biochemical; settings: for Emax: 10-point titration data expressed as % maximum AMP activation; for EC50: human AMPK complex 7, inflection point reflecting 50% of the maximum activation
T2 construct: made in house; host or cells: Spodoptera frugiperda Sf21 cells (baculovirus, triple infection)
Experimental: as §1, §2, §3, §4

T2 sequence (P54646 whole entry): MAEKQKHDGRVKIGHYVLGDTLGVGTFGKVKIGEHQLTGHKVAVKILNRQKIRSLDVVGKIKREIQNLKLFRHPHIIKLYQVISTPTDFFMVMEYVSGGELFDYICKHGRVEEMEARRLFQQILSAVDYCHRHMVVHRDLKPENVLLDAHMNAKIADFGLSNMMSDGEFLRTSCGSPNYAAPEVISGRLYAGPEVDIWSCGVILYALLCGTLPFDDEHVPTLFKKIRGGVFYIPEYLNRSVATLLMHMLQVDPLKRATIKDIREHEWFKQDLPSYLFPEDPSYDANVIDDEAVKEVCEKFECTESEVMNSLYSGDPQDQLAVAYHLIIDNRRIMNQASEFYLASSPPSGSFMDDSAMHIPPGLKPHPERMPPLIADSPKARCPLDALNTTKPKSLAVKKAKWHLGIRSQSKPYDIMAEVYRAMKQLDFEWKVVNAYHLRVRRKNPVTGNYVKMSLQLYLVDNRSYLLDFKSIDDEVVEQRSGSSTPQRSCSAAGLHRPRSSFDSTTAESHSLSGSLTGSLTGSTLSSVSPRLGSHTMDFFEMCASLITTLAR
T2 sequence (Q9Y478 whole entry): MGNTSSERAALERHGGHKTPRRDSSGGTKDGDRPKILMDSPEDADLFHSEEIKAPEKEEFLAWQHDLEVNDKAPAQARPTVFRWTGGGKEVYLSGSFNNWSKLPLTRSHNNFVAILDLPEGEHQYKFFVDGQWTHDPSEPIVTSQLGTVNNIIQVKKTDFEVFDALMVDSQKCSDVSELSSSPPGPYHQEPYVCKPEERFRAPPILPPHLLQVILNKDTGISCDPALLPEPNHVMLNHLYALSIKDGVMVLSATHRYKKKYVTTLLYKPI
T2 sequence (P54619 whole entry partner): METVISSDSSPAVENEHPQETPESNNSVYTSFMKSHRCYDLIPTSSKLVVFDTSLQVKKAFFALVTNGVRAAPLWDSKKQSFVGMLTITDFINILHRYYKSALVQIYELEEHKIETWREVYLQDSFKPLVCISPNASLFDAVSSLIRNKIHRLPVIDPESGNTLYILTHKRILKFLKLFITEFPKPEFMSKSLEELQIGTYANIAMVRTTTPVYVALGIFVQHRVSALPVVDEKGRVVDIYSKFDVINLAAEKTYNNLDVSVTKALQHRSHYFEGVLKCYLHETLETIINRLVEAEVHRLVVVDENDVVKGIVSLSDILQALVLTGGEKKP
T1 sequence (Q13131 whole entry): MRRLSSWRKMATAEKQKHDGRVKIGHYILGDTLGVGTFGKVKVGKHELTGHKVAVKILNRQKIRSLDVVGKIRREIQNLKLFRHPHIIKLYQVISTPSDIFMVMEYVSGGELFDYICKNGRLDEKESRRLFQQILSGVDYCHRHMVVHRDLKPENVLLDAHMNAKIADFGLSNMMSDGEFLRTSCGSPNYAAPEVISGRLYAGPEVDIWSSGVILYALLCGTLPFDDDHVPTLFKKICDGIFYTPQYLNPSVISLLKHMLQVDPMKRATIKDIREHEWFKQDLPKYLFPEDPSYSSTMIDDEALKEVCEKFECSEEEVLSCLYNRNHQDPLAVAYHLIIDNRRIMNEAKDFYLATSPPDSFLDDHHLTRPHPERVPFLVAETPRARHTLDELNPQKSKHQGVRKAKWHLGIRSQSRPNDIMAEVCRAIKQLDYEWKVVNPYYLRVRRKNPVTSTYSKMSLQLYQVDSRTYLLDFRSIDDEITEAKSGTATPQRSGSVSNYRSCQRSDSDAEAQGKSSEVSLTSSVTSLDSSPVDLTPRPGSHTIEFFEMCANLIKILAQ
T1 sequence (Q9Y478 whole entry): as the sequence (Q9Y478 whole entry) above
T1 sequence (P54619 whole entry partner): as the sequence (P54619 whole entry partner) above

Row | Compound | Emax [2] [%] | EC50 [2] [nM] | blood glucose reduction (ob/ob and db/db mice) [%] | Emax [1] [%] | EC50 [1] [nM]
1 | NC(=O)c1ncn([C@@H]2O[C@H](CO)[C@@H](O)[C@H]2O)c1N [AICAR] |  |  | 35 |  | 
2 | Cc1ccc(Cc2cc3cc(-c4ccc(N5CCCC5)cc4)c(Cl)cc3[nH]2)cc1C(=O)O [Example 1, 5-((6-chloro-5-(4-(pyrrolidin-1-yl)phenyl)-1H-indol-2-yl)methyl)-2-methylbenzoic acid] |  |  |  | 581 | 37
3 | Cc1ccc(Cc2cc3cc(-c4ccc(-c5ccc(S(C)(=O)=O)cc5)cc4)c(Cl)cc3[nH]2)cc1C(=O)O [Example 3] |  |  |  | 680 | 13
4 | Cc1ccc(Cc2cc3cc(-c4ccc(C5(CO)CC5)cc4)c(Cl)cc3[nH]2)cc1C(=O)O [Example 6, 5-((6-chloro-5-(4-(1-(hydroxymethyl)cyclopropyl)phenyl)-1H-indol-2-yl)methyl)-2-methylbenzoic acid] |  |  |  | 601 | 10
5 | CCOc1ccc(-c2cc3cc(Cc4ccc(C)c(C(=O)O)c4)[nH]c3cc2Cl)c(F)c1 [Example 8, 5-((6-chloro-5-(4-ethoxy-2-fluorophenyl)-1H-indol-2-yl)methyl)-2-methylbenzoic acid] |  |  |  | 265 | 493
6 | CS(=O)(=O)c1ccc(-c2ccc(-c3cc4cc(CCCC(=O)O)[nH]c4cc3Cl)cc2)cc1 [Example 15] |  |  |  | 370 | 24
7 | Cc1ccc(Cc2cc3nc(-c4ccc(C5(CO)CC5)cc4)c(Cl)cc3[nH]2)cc1C(=O)O [Example 18, 5-((6-chloro-5-(4-(1-(hydroxymethyl)cyclopropyl)phenyl)-1H-pyrrolo[3,2-b]pyridin-2-yl)methyl)-2-methylbenzoic acid] |  |  |  | 573 | 4
8 | CS(=O)(=O)c1ccc(-c2ccc(-c3nc4cc(CCCCO)[nH]c4cc3Cl)cc2)cc1 [Example 21] |  |  |  | 590 | 2
9 | CS(=O)(=O)c1ccc(-c2ccc(-c3nc4cc(CCCC(=O)O)[nH]c4cc3Cl)cc2)cc1 [Example 22] |  |  |  | 416 | 8
10 | CS(=O)(=O)c1ccc(-c2ccc(-c3nc4cc(CCCCC(=O)O)[nH]c4cc3Cl)cc2)cc1 [Example 23] |  |  |  | 575 | 1
11 | CS(=O)(=O)c1ccc(-c2ccc(-c3nc4cc(C[C@H]5CC[C@H](CO)CC5)[nH]c4cc3Cl)cc2)cc1 [Example 24, ((trans)-4-((6-chloro-5-(4′-(methylsulfonyl)-[1,1′-biphenyl]-4-yl)-1H-pyrrolo[3,2-b]pyridin-2-yl)methyl)cyclohexyl)methanol] |  |  |  | 256 | 14
12 | Cc1ccc(Cc2cc3cc(-c4ccc(-c5ccncc5)cc4)c(Cl)cc3[nH]2)cc1C(=O)O [Example 30, 5-{[6-chloro-5-(4-pyridin-4-ylphenyl)-1H-indol-2-yl]methyl}-2-methylbenzoic acid] |  |  |  | 583 | 15
13 | OCC1(c2ccc(-c3nc4cc(O[C@@H]5CO[C@H]6[C@@H]5OC[C@H]6O)[nH]c4cc3F)cc2)CC1 [Example 72] | 530 | < 3 |  |  | 
14 | O[C@@H]1CO[C@H]2[C@@H]1OC[C@H]2Oc1cc2nc(-c3ccc4c(c3)OCO4)c(Cl)cc2[nH]1 [Example 76] | 446 | < 3 |  |  | 
15 | Cn1ccc2cc(-c3nc4cc(O[C@@H]5CO[C@H]6[C@@H]5OC[C@H]6O)[nH]c4cc3Cl)ccc21 [Example 77] | 472 | < 3 |  |  | 
16 | O=S1(=O)CCN(c2ccc(-c3nc4cc(O[C@@H]5CO[C@H]6[C@@H]5OC[C@H]6O)[nH]c4cc3Cl)cc2)CC1 [Example 105] | 495 | 8 |  |  | 
17 | O[C@@H]1CO[C@H]2[C@@H]1OC[C@H]2Oc1cc2nc(-c3ccc(-c4ccc(-n5cncn5)cc4)cc3)c(Cl)cc2[nH]1 [Example 110] | 412 | < 1 |  |  | 
18 | OC[C@H]1OC[C@H](Oc2cc3nc(-c4ccc(C5(CO)CC5)cc4)c(Cl)cc3[nH]2)C[C@@H]1O [Example 122] | 384 | 4 |  |  | 
19 | OC[C@H]1OC[C@@H](Oc2cc3nc(-c4ccc(C5(CO)CC5)cc4)c(Cl)cc3[nH]2)[C@@H]1O [Example 124] | 305 | 15 |  |  | 

Now from value to compound, other results behind:

Row | Emax [2] [%] | EC50 [2] [nM] | Compound | blood glucose reduction (ob/ob and db/db mice) [%] | Emax [1] [%] | EC50 [1] [nM]
20 | 354 | 5 | O[C@@H]1CO[C@H]2[C@@H]1OC[C@H]2Oc1cc2nc(-c3ccc(-c4ccccc4)cc3)c(Cl)cc2[nH]1 [Example 69] |  |  | 
21 | 230 | < 3 | Cc1ccc(Oc2cc3nc(-c4ccc(-c5ccccc5)cc4)c(Cl)cc3[nH]2)cc1C(=O)O [Example 80] |  |  | 
22 | 239 | 6 | Cc1ccc(Oc2cc3nc(-c4ccc(-c5ccccc5)cc4)c(F)cc3[nH]2)cc1C(=O)O [Example 82] |  |  | 
23 | 492 | < 1 | Oc1ccccc1-c1ccc(-c2nc3cc(O[C@@H]4CO[C@H]5[C@@H]4OC[C@H]5O)[nH]c3cc2Cl)cc1 [Example 107, (3R,3aR,6R,6aR)-6-((6-chloro-5-(2′-hydroxy-[1,1′-biphenyl]-4-yl)-1H-pyrrolo[3,2-b]pyridin-2-yl)oxy)hexahydrofuro[3,2-b]furan-3-ol] |  |  | 
24 | 333 | < 3 | Cc1ccc(Oc2cc3nc(-c4ccc(C5(CO)CC5)cc4)c(Cl)cc3[nH]2)cc1P(=O)(O)O [Example 114, (5-((6-chloro-5-(4-(1-(hydroxymethyl)cyclopropyl)phenyl)-1H-pyrrolo[3,2-b]pyridin-2-yl)oxy)-2-methylphenyl)phosphonic acid] |  |  | 
25 | 213 | 71 | OC[C@H]1OC[C@H](Oc2cc3nc(-c4ccc(-c5ccccc5)cc4)c(Cl)cc3[nH]2)C[C@@H]1O [Example 121, (2R,3S,5R)-5-((5-([1,1′-biphenyl]-4-yl)-6-chloro-1H-pyrrolo[3,2-b]pyridin-2-yl)oxy)-2-(hydroxymethyl)tetrahydro-2H-pyran-3-ol] |  |  | 
26 | 295 | 12 | OC[C@H]1OC[C@@H](Oc2cc3nc(-c4ccc(-c5ccccc5)cc4)c(Cl)cc3[nH]2)[C@@H]1O [Example 123] |  |  | 
27 | 486 | 56 | Cc1c(O[C@@H]2CC[C@H]3[C@@H]2OC[C@H]3O)[nH]c2cc(Cl)c(-c3ccc(-c4ccccc4)cc3)nc12 [Example 138] |  |  | 
